{
  "source": "ChEMBL document CHEMBL1201862",
  "about": "“PubChem BioAssay data set” (2004)",
  "key": {"cells": {"test": "cells", "type": "functional, cell-based"}, "Genome polyprotein": {"biological_target": "Genome polyprotein (dengue virus type 2, UniProt P29990)", "sequence (P29990 2492-3391 limits assumed)": "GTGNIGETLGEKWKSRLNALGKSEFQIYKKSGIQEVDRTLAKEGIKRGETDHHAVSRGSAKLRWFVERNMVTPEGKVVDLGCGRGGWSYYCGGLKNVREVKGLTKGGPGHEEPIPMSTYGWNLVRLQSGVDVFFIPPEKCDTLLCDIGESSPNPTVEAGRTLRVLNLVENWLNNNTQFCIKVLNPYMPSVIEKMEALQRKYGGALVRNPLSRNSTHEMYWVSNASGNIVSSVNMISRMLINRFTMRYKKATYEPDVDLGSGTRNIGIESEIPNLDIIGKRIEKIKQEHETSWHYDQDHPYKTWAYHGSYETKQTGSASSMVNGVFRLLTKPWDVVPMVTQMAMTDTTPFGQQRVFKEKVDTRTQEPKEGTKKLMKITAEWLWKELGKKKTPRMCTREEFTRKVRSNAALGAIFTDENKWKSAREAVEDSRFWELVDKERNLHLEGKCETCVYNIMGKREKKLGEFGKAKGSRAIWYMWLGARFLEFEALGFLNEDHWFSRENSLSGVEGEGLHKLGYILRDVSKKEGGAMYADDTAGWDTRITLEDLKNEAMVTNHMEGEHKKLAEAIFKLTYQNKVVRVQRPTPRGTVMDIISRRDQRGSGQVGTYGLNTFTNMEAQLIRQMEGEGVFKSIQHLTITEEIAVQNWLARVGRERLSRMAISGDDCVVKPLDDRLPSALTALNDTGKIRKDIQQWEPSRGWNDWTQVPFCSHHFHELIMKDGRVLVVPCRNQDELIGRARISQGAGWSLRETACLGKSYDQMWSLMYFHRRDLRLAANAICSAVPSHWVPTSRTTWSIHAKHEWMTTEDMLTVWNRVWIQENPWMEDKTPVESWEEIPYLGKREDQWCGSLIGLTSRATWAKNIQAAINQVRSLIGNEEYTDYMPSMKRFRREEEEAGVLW", "test": "flavivirus cap methylation enzyme inhibition – biochemical, confirmation dose response, primary screen (AID 588689)", "type": "functional"}, "[1]": {"biological_target": "Protein-tyrosine kinase 2-beta (Homo sapiens, UniProt Q14289)", "sequence (Q14289 whole entry)": "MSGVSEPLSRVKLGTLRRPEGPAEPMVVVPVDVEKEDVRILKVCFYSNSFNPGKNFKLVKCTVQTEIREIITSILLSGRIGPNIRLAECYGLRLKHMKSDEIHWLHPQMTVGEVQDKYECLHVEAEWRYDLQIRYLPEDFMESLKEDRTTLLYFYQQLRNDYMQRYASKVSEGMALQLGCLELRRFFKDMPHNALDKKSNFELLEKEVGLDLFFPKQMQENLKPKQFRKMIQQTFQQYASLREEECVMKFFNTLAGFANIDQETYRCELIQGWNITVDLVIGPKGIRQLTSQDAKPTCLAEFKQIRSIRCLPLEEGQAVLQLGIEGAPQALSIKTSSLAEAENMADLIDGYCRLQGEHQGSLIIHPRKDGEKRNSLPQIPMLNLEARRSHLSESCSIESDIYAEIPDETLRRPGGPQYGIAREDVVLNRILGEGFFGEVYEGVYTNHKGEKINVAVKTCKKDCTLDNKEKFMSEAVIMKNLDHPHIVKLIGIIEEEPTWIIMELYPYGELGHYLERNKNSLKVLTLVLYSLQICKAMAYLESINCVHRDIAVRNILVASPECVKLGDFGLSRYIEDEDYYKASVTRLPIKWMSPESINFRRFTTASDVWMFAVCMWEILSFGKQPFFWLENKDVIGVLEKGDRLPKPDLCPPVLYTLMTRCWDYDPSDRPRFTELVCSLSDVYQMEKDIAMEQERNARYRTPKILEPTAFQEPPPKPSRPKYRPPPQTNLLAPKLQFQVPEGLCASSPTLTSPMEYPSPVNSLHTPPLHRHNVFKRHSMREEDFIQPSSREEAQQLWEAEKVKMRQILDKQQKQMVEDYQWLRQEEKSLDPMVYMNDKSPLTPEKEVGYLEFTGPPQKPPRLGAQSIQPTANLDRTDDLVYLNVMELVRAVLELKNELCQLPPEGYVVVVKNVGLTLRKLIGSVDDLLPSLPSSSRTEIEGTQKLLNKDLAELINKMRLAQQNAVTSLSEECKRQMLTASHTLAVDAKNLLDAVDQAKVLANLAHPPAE"}, "[2]": {"test": "microbe, parasite or virus in culture", "type": "functional", "conditions": "Mycobacterium tuberculosis"}, "BJ": {"test_system": "BJ", "test": "BJ-TERT-LT-ST fibroblast viability loss – cell-based, RAS-independent, luminescence, dose response (AID 1935);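 note: BJ fibroblasts immortalized with TERT plus LT and ST oncogenes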", "type": "functional", "conditions": "Homo sapiens"}, "Insulin-degrading enzyme": {"biological_target": "T1, Insulin-degrading enzyme (Homo sapiens, UniProt P14735)", "T1 sequence (P14735 whole entry)": "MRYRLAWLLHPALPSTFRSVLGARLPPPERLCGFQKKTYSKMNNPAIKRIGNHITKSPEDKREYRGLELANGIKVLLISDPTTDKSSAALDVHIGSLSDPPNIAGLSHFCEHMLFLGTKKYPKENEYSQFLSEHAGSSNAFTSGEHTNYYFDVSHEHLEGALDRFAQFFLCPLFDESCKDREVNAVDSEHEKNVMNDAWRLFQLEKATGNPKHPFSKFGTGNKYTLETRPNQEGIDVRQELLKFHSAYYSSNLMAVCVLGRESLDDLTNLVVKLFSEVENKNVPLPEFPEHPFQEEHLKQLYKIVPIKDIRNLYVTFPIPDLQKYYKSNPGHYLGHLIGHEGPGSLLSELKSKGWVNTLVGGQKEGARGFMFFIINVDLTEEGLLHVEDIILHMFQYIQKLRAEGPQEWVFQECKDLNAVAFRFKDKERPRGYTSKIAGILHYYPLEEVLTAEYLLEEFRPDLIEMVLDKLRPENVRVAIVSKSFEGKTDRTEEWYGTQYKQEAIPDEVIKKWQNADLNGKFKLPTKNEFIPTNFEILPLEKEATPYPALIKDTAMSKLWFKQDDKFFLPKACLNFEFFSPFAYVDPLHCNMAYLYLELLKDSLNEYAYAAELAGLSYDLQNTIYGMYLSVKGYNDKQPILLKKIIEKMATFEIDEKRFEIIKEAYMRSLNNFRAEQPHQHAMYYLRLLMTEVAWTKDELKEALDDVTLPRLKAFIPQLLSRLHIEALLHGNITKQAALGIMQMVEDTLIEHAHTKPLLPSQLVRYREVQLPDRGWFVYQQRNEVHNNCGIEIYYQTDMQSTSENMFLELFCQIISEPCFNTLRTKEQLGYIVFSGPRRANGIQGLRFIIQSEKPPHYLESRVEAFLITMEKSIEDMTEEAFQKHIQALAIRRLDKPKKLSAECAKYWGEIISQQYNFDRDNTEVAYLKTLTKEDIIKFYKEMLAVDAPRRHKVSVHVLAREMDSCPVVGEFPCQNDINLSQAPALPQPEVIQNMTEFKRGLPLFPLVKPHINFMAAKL", "test": "cellular IDE activation of Abeta substrate cleavage – fluorescence polarization, HEK cells, dose response (AID 588439)", "type": "functional, cell-based"}, "[3]": {"test": "general mammalian cell viability loss – inhibitor set, cherry-pick, set 2, cytotoxicity control for miR-122 modulator project, dose response (AID 720697)", "type": "functional, cell-based"}, "HEK293": {"test_system": "HEK293", "test": "membrane integrity loss in HEK cells – cell-based, fluorescence, cytotoxicity control for IDE activator project, dose response (AID 588440);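 note: cytotoxicity by LDH release measuring loss of membrane integrity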", "type": "functional", "conditions": "Homo sapiens"}, "[4]": {"biological_target": "T2, Ubiquitin-conjugating enzyme E2 N (Homo sapiens, UniProt P61088)", "T2 sequence (P61088 whole entry)": "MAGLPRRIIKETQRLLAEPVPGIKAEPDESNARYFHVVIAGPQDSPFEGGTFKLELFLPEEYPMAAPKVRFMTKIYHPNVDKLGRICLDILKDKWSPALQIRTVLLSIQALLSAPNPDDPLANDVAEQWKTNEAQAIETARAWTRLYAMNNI", "type": "functional"}, "[5]": {"biological_target": "Tyrosine-protein kinase SYK (Homo sapiens, UniProt P43405)", "type": "functional"}, "[6]": {"biological_target": "Mast/stem cell growth factor receptor Kit (Homo sapiens, UniProt P10721)", "sequence (P10721 whole entry)": "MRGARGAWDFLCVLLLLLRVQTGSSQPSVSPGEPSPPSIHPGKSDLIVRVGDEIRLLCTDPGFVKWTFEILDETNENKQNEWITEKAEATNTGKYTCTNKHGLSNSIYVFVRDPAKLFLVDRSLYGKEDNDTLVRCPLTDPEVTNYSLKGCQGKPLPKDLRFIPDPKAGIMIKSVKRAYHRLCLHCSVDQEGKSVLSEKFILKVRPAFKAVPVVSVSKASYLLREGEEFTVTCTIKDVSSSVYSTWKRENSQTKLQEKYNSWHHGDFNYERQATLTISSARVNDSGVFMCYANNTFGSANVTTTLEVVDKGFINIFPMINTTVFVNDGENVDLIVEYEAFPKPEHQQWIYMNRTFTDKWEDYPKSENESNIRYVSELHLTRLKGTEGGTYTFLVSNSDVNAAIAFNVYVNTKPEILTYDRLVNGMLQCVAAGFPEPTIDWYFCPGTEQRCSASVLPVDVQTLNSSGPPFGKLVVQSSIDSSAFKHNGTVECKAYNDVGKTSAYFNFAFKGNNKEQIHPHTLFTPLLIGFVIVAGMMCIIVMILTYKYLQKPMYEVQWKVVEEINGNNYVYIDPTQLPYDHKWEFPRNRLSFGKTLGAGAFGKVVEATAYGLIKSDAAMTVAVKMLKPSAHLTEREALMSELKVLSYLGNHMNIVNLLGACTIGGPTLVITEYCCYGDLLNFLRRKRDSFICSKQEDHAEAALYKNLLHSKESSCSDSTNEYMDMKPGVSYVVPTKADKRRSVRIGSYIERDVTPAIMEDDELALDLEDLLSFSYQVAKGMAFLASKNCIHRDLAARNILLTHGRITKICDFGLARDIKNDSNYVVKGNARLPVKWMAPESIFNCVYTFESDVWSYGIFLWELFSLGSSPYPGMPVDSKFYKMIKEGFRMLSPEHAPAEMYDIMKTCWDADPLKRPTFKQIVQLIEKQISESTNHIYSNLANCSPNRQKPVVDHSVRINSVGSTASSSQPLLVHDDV", "type": "functional"}, "LIM domain kinase 1": {"biological_target": "LIM domain kinase 1 (Homo sapiens, UniProt P53667)", "sequence (P53667 whole entry, the tested form may be a part)": "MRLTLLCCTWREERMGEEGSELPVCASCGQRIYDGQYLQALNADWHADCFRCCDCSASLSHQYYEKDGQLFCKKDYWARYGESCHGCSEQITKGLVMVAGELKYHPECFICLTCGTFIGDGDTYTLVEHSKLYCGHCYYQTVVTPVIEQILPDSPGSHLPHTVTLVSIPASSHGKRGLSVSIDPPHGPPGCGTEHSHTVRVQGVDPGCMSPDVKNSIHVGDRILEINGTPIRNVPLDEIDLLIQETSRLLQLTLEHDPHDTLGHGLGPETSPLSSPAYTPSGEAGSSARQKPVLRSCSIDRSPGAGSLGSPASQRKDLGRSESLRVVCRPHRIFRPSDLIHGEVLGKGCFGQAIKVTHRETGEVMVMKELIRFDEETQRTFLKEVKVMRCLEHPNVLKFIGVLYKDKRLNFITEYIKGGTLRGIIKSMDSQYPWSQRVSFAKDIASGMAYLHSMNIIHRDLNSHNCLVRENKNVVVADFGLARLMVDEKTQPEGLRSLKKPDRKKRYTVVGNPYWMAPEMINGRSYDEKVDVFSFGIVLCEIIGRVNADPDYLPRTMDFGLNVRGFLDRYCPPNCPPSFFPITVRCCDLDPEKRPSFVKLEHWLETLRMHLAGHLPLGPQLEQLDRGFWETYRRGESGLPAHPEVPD", "test": "Navigating the Kinome. Panel member name: LIMK1", "type": "functional"}, "[7]": {"biological_target": "Casein kinase I isoform alpha (Homo sapiens, UniProt P48729)", "sequence (P48729 whole entry, canonical isoform)": "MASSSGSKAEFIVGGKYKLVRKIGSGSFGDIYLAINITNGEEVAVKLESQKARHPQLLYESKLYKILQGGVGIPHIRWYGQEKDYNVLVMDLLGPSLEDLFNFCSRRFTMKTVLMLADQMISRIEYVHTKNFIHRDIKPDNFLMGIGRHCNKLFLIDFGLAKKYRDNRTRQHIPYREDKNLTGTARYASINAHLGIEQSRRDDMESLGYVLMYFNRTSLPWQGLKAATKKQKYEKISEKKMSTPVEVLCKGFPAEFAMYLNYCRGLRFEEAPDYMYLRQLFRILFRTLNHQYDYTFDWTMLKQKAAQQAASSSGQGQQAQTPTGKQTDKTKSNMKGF", "type": "functional"}, "[8]": {"biological_target": "T3, Sentrin-specific protease 8 (Homo sapiens, UniProt Q96LD8)", "T3 sequence (Q96LD8 whole entry)": "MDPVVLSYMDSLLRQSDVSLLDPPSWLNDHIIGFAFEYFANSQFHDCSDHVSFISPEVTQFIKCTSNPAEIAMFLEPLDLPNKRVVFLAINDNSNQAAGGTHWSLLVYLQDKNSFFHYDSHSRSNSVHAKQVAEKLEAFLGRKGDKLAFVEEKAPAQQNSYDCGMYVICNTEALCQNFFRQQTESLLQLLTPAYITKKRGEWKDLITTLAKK", "type": "functional"}, "Caspase-3": {"biological_target": "T4, Caspase-3 (Homo sapiens, UniProt P42574)", "T4 sequence (P42574 whole entry)": "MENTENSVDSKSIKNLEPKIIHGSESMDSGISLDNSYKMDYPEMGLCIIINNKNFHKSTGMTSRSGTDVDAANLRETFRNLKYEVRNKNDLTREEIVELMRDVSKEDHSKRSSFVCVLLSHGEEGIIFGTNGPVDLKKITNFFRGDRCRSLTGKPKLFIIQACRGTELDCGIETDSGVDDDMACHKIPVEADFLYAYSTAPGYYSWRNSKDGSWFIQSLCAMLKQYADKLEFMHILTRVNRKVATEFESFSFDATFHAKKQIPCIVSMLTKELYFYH", "type": "functional"}},
  "note": "The source made the active and inactive calls.",
  "data": [
    {"molecule": "CC(C)CC(=O)NC(c1cccs1)c1ccc2cccnc2c1O", "note": "(stereo not given)", "values": [
      {"measurement": "EC50", "setting": "cells", "result": "6.65 µM (active)"}
    ]},
    {"molecule": "CCOC(=O)c1ccc(NC2=CC(=O)C(=O)c3ccccc32)cc1", "values": [
      {"measurement": "IC50", "setting": "Genome polyprotein", "result": "> 100 µM (active)"},
      {"measurement": "IC50", "setting": "[1]", "result": "> 69.5 µM (not active)"},
      {"measurement": "CC50", "setting": "[2]", "result": "21.1 µM (active)"}
    ]},
    {"molecule": "OC(CNCCC1C=Nc2ccccc21)Cn1c2ccc(Cl)cc2c2cc(Cl)ccc21", "note": "(stereo not given)", "values": [
      {"measurement": "EC50", "setting": "BJ", "result": "5.42 µM (inconclusive)"},
      {"measurement": "EC50", "setting": "Insulin-degrading enzyme", "result": "> 54.7 µM (inactive)"},
      {"measurement": "AC50", "setting": "[3]", "result": "7.91 µM (active)"},
      {"measurement": "IC50", "setting": "HEK293", "result": "10.2 µM (inactive)"}
    ]},
    {"molecule": "CCCCCCCCCCCCCCCC[N+](C)(C)C", "values": [
      {"measurement": "IC50", "setting": "[4]", "result": "> 20 µM (inactive)"}
    ]},
    {"molecule": "NC1CCC(Nc2nc(Cl)cc(-c3c[nH]c4ncccc34)n2)CC1", "note": "(stereo not given)", "values": [
      {"measurement": "Ki", "setting": "[5]", "result": "> 1.58 µM (inactive)"},
      {"measurement": "Ki", "setting": "[6]", "result": "> 3.98 µM (inactive)"}
    ]},
    {"molecule": "O=C(O)C1CN(Cc2ccc(OCc3ccccc3)cc2Cl)C1", "values": [
      {"measurement": "Ki", "setting": "LIM domain kinase 1", "result": "> 3.16 µM (inactive)"},
      {"measurement": "Ki", "setting": "[7]", "result": "> 3.98 µM (inactive)"}
    ]},
    {"molecule": "COc1ccc(C(=O)c2nccc3cc(OC)c(OC)cc23)cc1OC", "values": [
      {"measurement": "IC50", "setting": "[8]", "result": "2.47 µM (active)"},
      {"measurement": "IC50", "setting": "Caspase-3", "result": "8.21 µM (active)"}
    ]}
  ]
}
